Drawing on ChEMBL document CHEMBL1909046, “DrugMatrix in vitro pharmacology data”, this text covers IC50 and Ki for 21 molecules.

Assay [1] concerns the target 5-hydroxytryptamine receptor 6 (Homo sapiens, UniProt P50406). The assay is classed as cell membranes, HeLa, Membrane. To be noted: hela. Further: in other assays of this panel Not Active means under 50% inhibition at 10 µM.
A further assay has as its target Substance-P receptor (Homo sapiens, UniProt P25103). The class given is cell membranes, Membrane. To be noted: cho. Further: in other assays of this panel Not Active means under 50% inhibition at 10 µM.
For another assay, the target named is Cannabinoid receptor 1 (Homo sapiens, UniProt P21554). The assay is classed as cell membranes, Chem-1, Membrane. Further: in other assays of this panel Not Active means under 50% inhibition at 10 µM.
Chain of Cannabinoid receptor 1 (P21554 whole entry): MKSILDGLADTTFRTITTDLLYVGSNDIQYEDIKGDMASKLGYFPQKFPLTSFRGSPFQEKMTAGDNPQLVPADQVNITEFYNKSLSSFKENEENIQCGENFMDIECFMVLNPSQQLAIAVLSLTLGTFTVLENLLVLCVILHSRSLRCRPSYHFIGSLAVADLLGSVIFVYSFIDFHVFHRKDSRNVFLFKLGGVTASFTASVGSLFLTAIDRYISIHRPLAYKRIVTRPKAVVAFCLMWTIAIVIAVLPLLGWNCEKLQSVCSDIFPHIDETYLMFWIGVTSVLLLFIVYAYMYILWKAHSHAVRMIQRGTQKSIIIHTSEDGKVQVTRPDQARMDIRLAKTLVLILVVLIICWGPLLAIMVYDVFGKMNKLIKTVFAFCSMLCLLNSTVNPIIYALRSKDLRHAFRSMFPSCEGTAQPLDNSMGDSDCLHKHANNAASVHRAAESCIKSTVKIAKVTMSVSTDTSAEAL
A further assay has as its target T1, Endothelin-1 receptor (Homo sapiens, UniProt P25101). Further: in other assays of this panel Not Active means under 50% inhibition at 10 µM.
T1 sequence (P25101 whole entry): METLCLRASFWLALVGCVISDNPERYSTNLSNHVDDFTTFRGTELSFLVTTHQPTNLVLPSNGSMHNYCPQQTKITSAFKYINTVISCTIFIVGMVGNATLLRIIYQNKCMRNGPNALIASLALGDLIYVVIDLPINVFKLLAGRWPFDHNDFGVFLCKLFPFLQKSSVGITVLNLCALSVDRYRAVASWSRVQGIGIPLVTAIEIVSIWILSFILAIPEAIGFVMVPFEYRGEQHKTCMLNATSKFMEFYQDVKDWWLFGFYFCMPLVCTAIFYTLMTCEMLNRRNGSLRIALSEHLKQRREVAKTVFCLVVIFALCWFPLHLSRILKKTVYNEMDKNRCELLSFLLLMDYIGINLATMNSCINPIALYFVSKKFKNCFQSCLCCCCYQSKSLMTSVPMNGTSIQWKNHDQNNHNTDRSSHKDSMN
The assay is classed as cell membranes, Membrane. To be noted: cho-k1.

A short description of assay [2]: DRUGMATRIX: GABAA, Chloride Channel, TBOB radioligand binding (ligand: [3H] TBOB). The class given is cell membranes, Rattus norvegicus, Wistar, Cerebral cortex, Membrane. The note with it: Not Active = under 50% inhibition at 10 µM.
A further assay concerns the target T2, Progesterone receptor (Bos taurus, UniProt Q690N0).
T2 sequence (Q690N0 whole entry): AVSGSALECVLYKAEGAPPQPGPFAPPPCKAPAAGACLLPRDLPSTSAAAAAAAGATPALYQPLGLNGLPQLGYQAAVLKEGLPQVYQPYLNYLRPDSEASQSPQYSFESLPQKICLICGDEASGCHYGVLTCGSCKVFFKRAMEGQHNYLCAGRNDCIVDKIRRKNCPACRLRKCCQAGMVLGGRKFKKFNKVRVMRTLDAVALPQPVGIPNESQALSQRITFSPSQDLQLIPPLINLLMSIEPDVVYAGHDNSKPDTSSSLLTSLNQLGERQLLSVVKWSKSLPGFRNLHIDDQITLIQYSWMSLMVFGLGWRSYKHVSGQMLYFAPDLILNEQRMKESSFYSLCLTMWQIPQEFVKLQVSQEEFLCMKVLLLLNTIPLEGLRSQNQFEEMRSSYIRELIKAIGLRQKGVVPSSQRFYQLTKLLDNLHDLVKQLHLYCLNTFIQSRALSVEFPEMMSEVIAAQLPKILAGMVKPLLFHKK
Nature of the assay: DRUGMATRIX: Progesterone radioligand binding (ligand: [3H] R-5020). The assay is classed as tissue-based, Uterus. To be noted: Not Active = under 50% inhibition at 10 µM; for Ki: read-out: Ki.

For assay [3], the target named is Tyrosine-protein kinase Lck (Homo sapiens, UniProt P06239). Put plainly: DRUGMATRIX: Protein Tyrosine Kinase, LCK enzyme inhibition (substrate: Poly(Glu:Tyr)). The assay is classed as cell-based, Insect cells. To be noted: insect cells; Not Active = under 50% inhibition at 10 µM.
Chain of Tyrosine-protein kinase Lck (P06239 whole entry): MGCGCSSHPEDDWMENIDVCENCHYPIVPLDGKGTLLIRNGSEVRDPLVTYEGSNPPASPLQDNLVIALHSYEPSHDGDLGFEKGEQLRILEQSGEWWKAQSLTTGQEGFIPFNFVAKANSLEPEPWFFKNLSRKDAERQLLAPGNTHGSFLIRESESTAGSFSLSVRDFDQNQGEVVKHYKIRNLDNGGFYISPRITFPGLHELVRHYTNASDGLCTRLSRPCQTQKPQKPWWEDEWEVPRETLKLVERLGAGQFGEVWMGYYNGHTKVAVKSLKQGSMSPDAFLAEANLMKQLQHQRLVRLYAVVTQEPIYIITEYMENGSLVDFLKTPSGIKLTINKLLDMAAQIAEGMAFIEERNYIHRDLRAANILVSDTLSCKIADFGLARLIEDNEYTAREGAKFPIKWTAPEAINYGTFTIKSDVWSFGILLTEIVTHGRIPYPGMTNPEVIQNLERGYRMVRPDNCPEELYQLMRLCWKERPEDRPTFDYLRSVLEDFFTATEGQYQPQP

Chain of 5-hydroxytryptamine receptor 6 (P50406 whole entry): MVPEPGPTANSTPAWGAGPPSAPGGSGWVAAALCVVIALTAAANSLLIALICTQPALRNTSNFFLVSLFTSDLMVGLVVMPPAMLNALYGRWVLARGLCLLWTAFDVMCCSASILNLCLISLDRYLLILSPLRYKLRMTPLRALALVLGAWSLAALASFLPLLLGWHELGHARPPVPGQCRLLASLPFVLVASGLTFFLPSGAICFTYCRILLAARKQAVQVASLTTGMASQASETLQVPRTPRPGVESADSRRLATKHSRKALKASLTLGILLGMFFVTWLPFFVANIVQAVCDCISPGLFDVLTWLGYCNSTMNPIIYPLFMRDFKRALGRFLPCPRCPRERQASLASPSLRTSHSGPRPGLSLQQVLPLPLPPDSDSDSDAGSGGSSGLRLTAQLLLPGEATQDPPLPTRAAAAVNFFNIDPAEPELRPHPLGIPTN
Chain of Substance-P receptor (P25103 whole entry): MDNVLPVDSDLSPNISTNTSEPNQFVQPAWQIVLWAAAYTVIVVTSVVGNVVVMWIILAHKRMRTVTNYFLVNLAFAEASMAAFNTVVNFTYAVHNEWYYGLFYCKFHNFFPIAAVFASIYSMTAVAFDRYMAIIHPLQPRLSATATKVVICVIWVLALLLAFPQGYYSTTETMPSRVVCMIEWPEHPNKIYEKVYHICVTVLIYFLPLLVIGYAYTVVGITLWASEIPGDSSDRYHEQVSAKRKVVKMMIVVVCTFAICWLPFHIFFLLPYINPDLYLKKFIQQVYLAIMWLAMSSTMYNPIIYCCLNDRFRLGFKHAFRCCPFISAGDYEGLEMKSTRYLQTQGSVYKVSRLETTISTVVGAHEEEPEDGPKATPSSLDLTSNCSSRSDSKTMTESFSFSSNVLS

In the case of `O=S(=O)([O-])CCS.[Na+]` [MESNA], the half-maximal inhibitory concentration (IC50) result (in assay [1]; against Substance-P receptor; on Cannabinoid receptor 1 (chem-1); against Endothelin-1 receptor; in assay [2]; at Progesterone receptor) was “Not Active” each time. In assay [3], the half-inhibitory concentration (IC50) result is listed as “Not Active”. In addition, the inhibition constant Ki result in assay [2] was “Not Active”.

On to `C#C[C@]1(O)CC[C@H]2[C@@H]3CCc4cc(OC)ccc4[C@H]3CC[C@@]21C` [MESTRANOL], for which the half-maximal inhibitory concentration (IC50) result in assay [1] was “Not Active”; at Substance-P receptor it was “Not Active”; at Cannabinoid receptor 1 (read-out: IC50) it was 28.5 µM; against Endothelin-1 receptor it was “Not Active”; in assay [2], “Not Active”; at Progesterone receptor (read-out: IC50) it was 84.4 µM. The IC50 result in assay [3] is given as “Not Active”. The inhibition constant (Ki) on Cannabinoid receptor 1 (read-out: Ki) was 22.5 µM; in assay [2] it was “Not Active”; at Progesterone receptor, 11 µM.

With `CC(=O)Nc1cccc(O)c1` [METACETAMOL], the IC50 entry (in assay [1]; on Substance-P receptor; against Cannabinoid receptor 1 (chem-1); against Endothelin-1 receptor; in assay [2]; at Progesterone receptor) was “Not Active” throughout. Also, the IC50 entry in assay [3] is listed as “Not Active”. For the same molecule, in assay [2], the Ki entry is listed as “Not Active”.

`Cc1ncc([N+](=O)[O-])n1CCO` [METRONIDAZOLE]: the IC50 entry (in assay [1]; at Substance-P receptor; at Cannabinoid receptor 1 (chem-1); at Endothelin-1 receptor; in assay [2]; on Progesterone receptor) was “Not Active” in each case. Moreover, in assay [3], the IC50 result is “Not Active”. In assay [2], the Ki entry is “Not Active”.

`CC(C)(C(=O)c1cccnc1)c1cccnc1` [METYRAPONE]: the IC50 result (in assay [1]; against Substance-P receptor; on Cannabinoid receptor 1 (chem-1); at Endothelin-1 receptor; in assay [2]; at Progesterone receptor) was “Not Active” in each case. Also, in assay [3], the IC50 entry is reported as “Not Active”. The inhibitory constant (Ki) entry in assay [2] is reported as “Not Active”.

As for `Oc1ccc(OCc2ccccc2)cc1` [MONOBENZONE], the IC50 result (in assay [1]; against Substance-P receptor; on Cannabinoid receptor 1 (chem-1); against Endothelin-1 receptor; in assay [2]; at Progesterone receptor) was “Not Active” each time. In addition, the IC50 result in assay [3] is “Not Active”. The Ki entry in assay [2] is “Not Active”.

For the molecule `CC(C)(Oc1ccc(C2CCCc3ccccc32)cc1)C(=O)O` (stereo unspecified) [NAFENOPIN], the half-inhibitory concentration (IC50) result (in assay [1]; at Substance-P receptor; against Cannabinoid receptor 1 (chem-1); against Endothelin-1 receptor; in assay [2]; at Progesterone receptor) was “Not Active” in each case. In assay [3], the half-inhibitory concentration (IC50) result is given as “Not Active”. Moreover, in assay [2], the Ki entry is given as “Not Active”.

In the case of `COc1ccc2cc([C@H](C)C(=O)O)ccc2c1` [NAPROXEN], the IC50 result (in assay [1]; against Substance-P receptor; on Cannabinoid receptor 1 (chem-1); against Endothelin-1 receptor; in assay [2]; on Progesterone receptor) was “Not Active” in each case. Moreover, in assay [3], the IC50 result is given as “Not Active”. In addition, the Ki result in assay [2] is “Not Active”.

`CC(C)[C@H]1CC[C@H](C(=O)N[C@H](Cc2ccccc2)C(=O)O)CC1` [NATEGLINIDE]: the half-maximal inhibitory concentration (IC50) entry (in assay [1]; on Substance-P receptor; at Cannabinoid receptor 1 (chem-1); at Endothelin-1 receptor; in assay [2]; at Progesterone receptor) was “Not Active” throughout. Also, the IC50 result in assay [3] is given as “Not Active”. Moreover, the Ki result in assay [2] is on record as “Not Active”.

`CCN[C@@H]1C[C@H](N)[C@@H](O[C@H]2OC(CN)=CC[C@H]2N)[C@H](O)[C@H]1O[C@H]1OC[C@](C)(O)[C@H](NC)[C@H]1O` [NETILMICIN]: the IC50 result (in assay [1]; on Substance-P receptor; at Cannabinoid receptor 1 (chem-1); against Endothelin-1 receptor; in assay [2]; at Progesterone receptor) was “Not Active” in each case. In addition, the IC50 result in assay [3] is given as “Not Active”. For the same molecule, the Ki entry in assay [2] is reported as “Not Active”.

For `COC(=O)C1=C(C)NC(C)=C(C(=O)OCC(C)C)C1c1ccccc1[N+](=O)[O-]` (stereo unspecified) [NISOLDIPINE], the 50% inhibitory concentration (IC50) result (in assay [1]; at Substance-P receptor; against Cannabinoid receptor 1 (chem-1); against Endothelin-1 receptor; in assay [2]; at Progesterone receptor) was “Not Active” in each case. For the same molecule, the IC50 result in assay [3] was “Not Active”. Further, in assay [2], the inhibition constant Ki result is on record as “Not Active”.

Turning to `CCOC(=O)C1=C(C)NC(C)=C(C(=O)OC)C1c1cccc([N+](=O)[O-])c1` (stereo unspecified) [NITRENDIPINE], the IC50 result (in assay [1]; against Substance-P receptor; at Cannabinoid receptor 1 (chem-1); against Endothelin-1 receptor; in assay [2]; on Progesterone receptor) was “Not Active” in each case. The 50% inhibitory concentration (IC50) entry in assay [3] is given as “Not Active”. Moreover, the inhibition constant (Ki) entry in assay [2] is “Not Active”.

On to `C#C[C@]1(OC(C)=O)CC[C@H]2[C@@H]3CCC4=CC(=O)CC[C@@H]4[C@H]3CC[C@@]21C` [NORETHINDRONE ACETATE], for which the IC50 entry in assay [1] was “Not Active”; against Substance-P receptor it was “Not Active”; against Cannabinoid receptor 1 (chem-1), “Not Active”; at Endothelin-1 receptor, “Not Active”; in assay [2], “Not Active”; on Progesterone receptor (read-out: IC50) it was 0.028 µM. Also, in assay [3], the IC50 result is “Not Active”. The Ki entry in assay [2] was “Not Active”; on Progesterone receptor, 0.00362 µM.

For `COc1ccc2[nH]c([S+]([O-])Cc3ncc(C)c(OC)c3C)nc2c1` (stereo unspecified) [OMEPRAZOLE], the IC50 entry (in assay [1]; against Substance-P receptor; on Cannabinoid receptor 1 (chem-1); at Endothelin-1 receptor; in assay [2]; at Progesterone receptor) was “Not Active” in each case. In addition, the half-maximal inhibitory concentration (IC50) entry in assay [3] is “Not Active”. In addition, in assay [2], the inhibitory constant (Ki) result is recorded as “Not Active”.

Turning to `Cc1nccn1CC1CCc2c(c3ccccc3n2C)C1=O` (stereo unspecified) [ONDANSETRON], the IC50 result (in assay [1]; on Substance-P receptor; at Cannabinoid receptor 1 (chem-1); on Endothelin-1 receptor; in assay [2]; on Progesterone receptor) was “Not Active” in each case. Further, the concentration for half-maximal inhibition (IC50) entry in assay [3] is “Not Active”. Further, the inhibitory constant (Ki) entry in assay [2] is “Not Active”.

For `CCn1cc(C(=O)O)c(=O)c2cc(F)c(N3CCN(C)CC3)cc21` [PEFLOXACIN], the IC50 result (in assay [1]; on Substance-P receptor; at Cannabinoid receptor 1 (chem-1); against Endothelin-1 receptor; in assay [2]; on Progesterone receptor) was “Not Active” throughout. Also, the IC50 entry in assay [3] is on record as “Not Active”. In assay [2], the Ki entry is on record as “Not Active”.

Consider `O=C(C1CCCCC1)N1CC(=O)N2CCc3ccccc3C2C1` (stereo unspecified) [PRAZIQUANTEL], for which the IC50 entry (in assay [1]; at Substance-P receptor; against Cannabinoid receptor 1 (chem-1); on Endothelin-1 receptor; in assay [2]; at Progesterone receptor) was “Not Active” in each case. The IC50 entry in assay [3] is recorded as “Not Active”. Also, the Ki result in assay [2] is reported as “Not Active”.

Consider `CCN(CC)CCOC(=O)c1ccc(N)cc1` [PROCAINE], for which the half-inhibitory concentration (IC50) result (in assay [1]; against Substance-P receptor; at Cannabinoid receptor 1 (chem-1); against Endothelin-1 receptor; in assay [2]; on Progesterone receptor) was “Not Active” in each case. The IC50 result in assay [3] is “Not Active”. In addition, the Ki entry in assay [2] is “Not Active”.

With `CCCN(CCC)C(=O)C(CCC(=O)O)NC(=O)c1ccccc1` (stereo unspecified) [PROGLUMIDE], the IC50 result (in assay [1]; on Substance-P receptor; against Cannabinoid receptor 1 (chem-1); against Endothelin-1 receptor; in assay [2]; at Progesterone receptor) was “Not Active” in each case. In addition, in assay [3], the IC50 entry was “Not Active”. For the same molecule, the Ki entry in assay [2] is reported as “Not Active”.

On to `NC(=O)c1cnccn1` [PYRAZINAMIDE], for which the IC50 result (in assay [1]; against Substance-P receptor; against Cannabinoid receptor 1 (chem-1); at Endothelin-1 receptor; in assay [2]; on Progesterone receptor) was “Not Active” in each case. Also, the IC50 result in assay [3] is recorded as “Not Active”. The inhibitory constant (Ki) entry in assay [2] was “Not Active”.

Consider `OC(CCN1CCCCC1)(c1ccccc1)C1CCCCC1` (stereo unspecified) [TRIHEXYPHENIDYL], for which the half-maximal inhibitory concentration (IC50) result (in assay [1]; against Substance-P receptor; on Cannabinoid receptor 1 (chem-1); against Endothelin-1 receptor; in assay [2]; at Progesterone receptor) was “Not Active” throughout. In addition, the IC50 entry in assay [3] is listed as “Not Active”. Moreover, the inhibition constant Ki result in assay [2] is “Not Active”.
